# US11590116B2 (THERAVANCE BIOPHARMA R&D IP, LLC, priority 2019, dated 2023)
# How the values were obtained:
# [1] = system: TGF-β-stimulated SMAD3 phosphorylation in BEAS-2B cells; test: Cellular ALK5 potency assay, inhibition of TGF-β stimulated pSMAD3 formation in BEAS-2B cells; format: cell-based; conditions: Homo sapiens; inhibition of TGF-β stimulated pSMAD3 formation, BEAS-2B cells; read-out: BEAS2B pIC50 (converted)
# Summary of the method: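 SMAD3 phosphorylation was measured by AlphaLISA after 30 min TGF-β stimulation (10 ng/mL final) of BEAS-2B cells preincubated 1 h with compound at 37 °C. Results given as pIC50.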
# [2] = target: T1, recombinant human ALK5 (TGF-βR1) protein (Homo sapiens, UniProt P36897); test: Biochemical ALK5 (TGF-βR1) assay to measure pKi (LANCE Ultra ULight kinase assay); conditions: apparent pKi from pIC50 by Cheng-Prusoff, read-out: ALK5 pKi (converted)
# T1 construct: purchased Life Technologies PR9075A
# T1 sequence (P36897 34-503): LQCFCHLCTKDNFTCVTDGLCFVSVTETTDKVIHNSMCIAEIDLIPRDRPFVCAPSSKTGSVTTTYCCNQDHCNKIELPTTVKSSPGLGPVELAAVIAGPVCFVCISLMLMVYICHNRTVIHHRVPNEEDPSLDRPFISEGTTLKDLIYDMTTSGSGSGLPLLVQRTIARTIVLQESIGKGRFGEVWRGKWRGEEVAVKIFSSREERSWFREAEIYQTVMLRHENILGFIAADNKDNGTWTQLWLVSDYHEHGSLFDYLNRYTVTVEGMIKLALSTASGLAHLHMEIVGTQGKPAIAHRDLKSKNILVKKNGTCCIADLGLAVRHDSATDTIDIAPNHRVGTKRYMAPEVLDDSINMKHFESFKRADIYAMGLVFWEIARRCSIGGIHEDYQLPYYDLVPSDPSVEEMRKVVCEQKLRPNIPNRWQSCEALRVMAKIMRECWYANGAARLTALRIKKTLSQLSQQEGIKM
# Summary of the method: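 Compounds (10 μM to 25 pM) were preincubated 60 min at room temperature with enzyme, then reactions were started with ATP (125 μM stock, 5× final) and run 60 min at 37 °C. EDTA-containing Eu-anti-phospho-Topo IIα (Thr1342) antibody stopped the reaction; TR-FRET read at 665 nm. pIC50 from 4-parameter fit, converted to pKi via Cheng-Prusoff.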
Structure (SMILES),IC50 [1] [nM],Ki [2] [nM]
"Cc1nc(-c2n[nH]cc2-c2ccc3ncc(-c4cnn5c4CNCC5)cc3n2)ccc1F [Compound 185, 2-[3-(5-fluoro-6-methyl-2-pyridyl)-1H-pyrazol-4-yl]-7-(4,5,6,7-tetrahydropyrazolo[1,5-a]pyrazin-3-yl)-1,5-naphthyridine]",< 20,0.0398 to 0.316
"Cc1cccc(-c2n[nH]cc2-c2ccc3ncc(N4CC5CN(C(C)C)CC54)cc3n2)n1 (centres unmarked) [Compound 186, 7-(3-isopropyl-3,6-diazabicyclo[3.2.0]heptan-6-yl)-2-[3-(6-methyl-2-pyridyl)-1H-pyrazol-4-yl]-1,5-naphthyridine]",25.1 to 158,0.398 to 3.16
"Cc1cccc(-c2[nH]cnc2-c2ccc3ncc(NC4CCNCC4)cc3c2)n1 [Compound 187, 6-[5-(6-methyl-2-pyridyl)-1H-imidazol-4-yl]-N-(4-piperidyl)quinolin-3-amine]",200 to 1260,0.0398 to 0.316
"Cc1cccc(-c2[nH]cnc2-c2ccc3ncc(NCCNC4CNC4)cc3c2)n1 [Compound 189, N′-(azetidin-3-yl)-N-[6-[5-(6-methyl-2-pyridyl)-1H-imidazol-4-yl]-3-quinolyl]ethane-1,2-diamine]",200 to 1260,0.0398 to 0.316
"Cc1cccc(-c2n[nH]cc2-c2ccc3ncc(-c4cncs4)cc3n2)n1 [Compound 190, 5-[6-[3-(6-methyl-2-pyridyl)-1H-pyrazol-4-yl]-1,5-naphthyridin-3-yl]thiazole]",< 20,< 0.0316
"Cc1cccc(-c2nnn(Cc3ccccc3)c2-c2ccc3ncc(N4CCC(N(C)C)C4)cc3c2)n1 (centres unmarked) [Compound 191, 1-[6-[3-benzyl-5-(6-methyl-2-pyridyl)triazol-4-yl]-3-quinolyl]-N,N-dimethyl-pyrrolidin-3-amine]",25.1 to 158,0.0398 to 0.316
"Cc1nc(-c2n[nH]cc2-c2ccc3ncc(-c4cnn(CCN)c4)cc3n2)ccc1F [Compound 192, 2-[4-[6-[3-(5-fluoro-6-methyl-2-pyridyl)-1H-pyrazol-4-yl]-1,5-naphthyridin-3-yl]pyrazol-1-yl]ethanamine]",< 20,< 0.0316
"Cc1cccc(-c2n[nH]cc2-c2ccc3ncc(N4CC(N)C4)cc3n2)n1 [Compound 193, 1-[6-[3-(6-methyl-2-pyridyl)-1H-pyrazol-4-yl]-1,5-naphthyridin-3-yl]azetidin-3-amine]",25.1 to 158,0.0398 to 0.316
"Cc1cccc(-c2[nH]ncc2-c2ccc3ncc(C(=O)O[C@@H]4CCNC4)cc3n2)n1 [Compound 195, [(3R)-pyrrolidin-3-yl] 6-[5-(6-methyl-2-pyridyl)-1H-pyrazol-4-yl]-1,5-naphthyridine-3-carboxylate]",25.1 to 158,0.398 to 3.16
"Cc1cccc(-c2[nH]cnc2-c2ccc3ncc(C4=CCC(N)CC4)cc3c2)n1 (centres unmarked) [Compound 196, 4-[6-[5-(6-methyl-2-pyridyl)-1H-imidazol-4-yl]-3-quinolyl]cyclohex-3-en-1-amine]",< 20,< 0.0316
"Cc1cccc(-c2[nH]cnc2-c2ccc3ncc(-c4cccc(C(=O)OC5CNC5)c4)cc3c2)n1 [Compound 197, azetidin-3-yl 3-[6-[5-(6-methyl-2-pyridyl)-1H-imidazol-4-yl]-3-quinolyl]benzoate]",25.1 to 158,0.0398 to 0.316
"Cc1cccc(-c2n[nH]cc2-c2ccc3ncc(-c4cn5c(n4)CN(CCO)CC5)cc3n2)n1 [Compound 198, 2-[2-[6-[3-(6-methyl-2-pyridyl)-1H-pyrazol-4-yl]-1,5-naphthyridin-3-yl]-6,8-dihydro-5H-imidazo[1,2-a]pyrazin-7-yl]ethanol]",25.1 to 158,0.0398 to 0.316
"Cc1cccc(-c2n[nH]cc2-c2ccc3ncc(NCC4CCCNC4)cc3n2)n1 (centres unmarked) [Compound 199, 6-[3-(6-methyl-2-pyridyl)-1H-pyrazol-4-yl]-N-(3-piperidylmethyl)-1,5-naphthyridin-3-amine]",200 to 1260,0.0398 to 0.316
